In one assay the test system is Con A Oo12 ApM activity. Kind of assay: Con A O12 aminopeptidase inhibition assay, ApM (leucine p-nitroanilide). It is filed as biochemical, Ostertagia ostertagi. The protocol:
(§1) The effect of various protease inhibitors on Oo12 activity was assayed and included amastatin (aminopeptidase inhibitor), actinonin (aminopeptidase inhibitor), bestatin (aminopeptidase inhibitor), EDTA (metallo-protease inhibitor), E64 (cysteine protease inhibitor), pepstatin (aspartic protease inhibitor), 1,10 phenanthroline (metallo-protease inhibitor) and 3,4-dichloroisocoumarin (DCI, serine protease inhibitor). 10 μl Con A Oo12 and 100 μl 50 mM Mops buffer, pH 7.0 was added to a microtitre plate well and 2-4 μl of enzyme inhibitor added, to give a final concentration of 0.5 mM and 1 mM actinonin, 50 μM and 100 μM bestatin, 1 mM and 15 mM EDTA, 50 μM and 100 μM E64, 10 and 50 μM pepstatin, 1 mM and 10 mM 1,10 phenanthroline, 100 μM and 500 μM DCI. The plate was preincubated at 37° C. for 20-28 minutes and then assayed for ApM and ApA activity. 100 μl 2 mM leucine p-nitroanilide (ApM) or α-glutamic p-nitroanilide (ApA)/Mops was added per well and the optical density (OD) at 405 nm read using an Elisa plate reader. The plates were incubated at 37° C. for 45-48 minutes and the final OD reading was then taken. The OD change per minute per 10 μl sample was calculated. All assays were carried out in triplicate.

A further assay has as its system Con A Oo12 ApA activity. Kind of assay: Con A O12 aminopeptidase inhibition assay, ApA (α-glutamic p-nitroanilide). It is filed as biochemical, Ostertagia ostertagi. As to the method: as §1
The subject of a further assay is Ostertagia ostertagi PHP. As to the kind of experiment: Protease digestion of Oo PhP, release of ApM activity. It is filed as biochemical. The protocol:
Method: Oo PhP was resuspended in 50 mM Mops buffer, pH 7.0 to give 0.1 mg pellet/ml. 50 μl aliquots were prewarmed at 37° C. for 39 minutes. 5 μl of either α-Chymotrypsin (Sigma type VII, 50 units/mg solid), Subtilisin (Sigma type VIII, 11.6 units/mg solid), Trypsin (Sigma, TPCK-treated type XIII, 9700 units/mg solid) or Thermolysin (Sigma, 37 units/mg solid dissolved in 1 mM KCl/2 mM CaCl) was added to give final protease concentrations of 5, 50, 500, 1000 and 2000 μg/ml. Aliquots containing chymotrypsin, trypsin or subtilisin were then incubated at 37° C. for 1 hour and protease activity inhibited by the addition of 1 μl 10 mM 3,4-dichloroisocoumarin (DCI). Aliquots containing thermolysin were incubated for 2 hours at 37° C. and activity inhibited by the addition of 1 μl 0.25M EDTA. Samples were spun at high speed on the airfuge at 20 psi for 20 minutes at room temperature. 5 μl samples were assay for ApM activity, using the microtitre plate method, over 29.6 minutes with methionine-pNA as substrate.

Non-standard residues stand in square brackets, D forms with d. Residues, ends and D or L forms follow the SMILES beside them. *: point of attachment. Sta = CC(C)C[C@H](N)[C@@H](O)CC(=O)O; Isovaleryl = CC(C)CC(=O)*

With `CC(C)CC(=O)N[C@H](C(=O)N[C@H](C(=O)N[C@@H](CC(C)C)[C@@H](O)CC(=O)N[C@@H](C)C(=O)N[C@@H](CC(C)C)[C@@H](O)CC(=O)O)C(C)C)C(C)C` [Pepstatin, pepstatin] (Isovaleryl-VV[Sta]A[Sta]-OH), the results for the Leu-pNA enzyme activity in the assay on Con A Oo12 ApM activity (inhibitor 10 μM) and in the assay on Con A Oo12 ApM activity (inhibitor 50 μM) were 1.297 nmoles/min/10 μl ConA O12 and 1.263 nmoles/min/10 μl ConA O12, respectively. For the same molecule, the Leu-pNA enzyme inhibition in the assay on Con A Oo12 ApM activity (inhibitor 10 μM) was 0 (+6%); with Con A Oo12 ApM activity (inhibitor 50 μM), 0 (+3%). In addition, the α-Glu-pNA enzyme activity is given as 0.326 nmoles/min/10 μl ConA O12 in the assay with Con A Oo12 ApA activity (inhibitor 10 μM) and 0.315 nmoles/min/10 μl ConA O12 in the assay on Con A Oo12 ApA activity (inhibitor 50 μM). Besides, the values for the α-Glu-pNA enzyme inhibition with Con A Oo12 ApA activity (inhibitor 10 μM) and in the assay with Con A Oo12 ApA activity (inhibitor 50 μM) were 2% and 6%, respectively.

Regarding `CC(C)C[C@H](NC(=O)[C@H]1O[C@@H]1C(=O)O)C(=O)NCCCCN=C(N)N` [E64], in the assay with Con A Oo12 ApM activity (inhibitor 50 μM), the Leu-pNA enzyme activity is given as 1.241 nmoles/min/10 μl ConA O12 and the Leu-pNA enzyme inhibition is given as 0 (+1%). Besides, in the assay with Con A Oo12 ApM activity (inhibitor 100 μM), the Leu-pNA enzyme activity is listed as 1.278 nmoles/min/10 μl ConA O12 and the Leu-pNA enzyme inhibition is listed as 0 (+4%). Moreover, in the assay with Con A Oo12 ApA activity (inhibitor 50 μM), the α-Glu-pNA enzyme activity turned out to be 0.323 nmoles/min/10 μl ConA O12 and the α-Glu-pNA enzyme inhibition stood at 3%. For the same molecule, in the assay with Con A Oo12 ApA activity (inhibitor 100 μM), the α-Glu-pNA enzyme activity was 0.327 nmoles/min/10 μl ConA O12 and the α-Glu-pNA enzyme inhibition was 2%.

In the case of `CC(C)C[C@H](NC(=O)[C@@H](O)[C@H](N)Cc1ccccc1)C(=O)O` [Bestatin, bestatin], in the assay with Con A Oo12 ApM activity (inhibitor 50 μM), the Leu-pNA enzyme activity was determined as 0.045 nmoles/min/10 μl ConA O12 and the Leu-pNA enzyme inhibition was found to be 96%. Moreover, in the assay on Con A Oo12 ApM activity (inhibitor 100 μM), the Leu-pNA enzyme activity amounted to 0.022 nmoles/min/10 μl ConA O12 and the Leu-pNA enzyme inhibition stood at 98%. Besides, in the assay on Con A Oo12 ApA activity (inhibitor 50 μM), the α-Glu-pNA enzyme activity was 0.174 nmoles/min/10 μl ConA O12 and the α-Glu-pNA enzyme inhibition worked out at 48%. In addition, in the assay with Con A Oo12 ApA activity (inhibitor 100 μM), the α-Glu-pNA enzyme activity is listed as 0.119 nmoles/min/10 μl ConA O12 and the α-Glu-pNA enzyme inhibition came out at 64%.

In the assay on Con A Oo12 ApM activity (inhibitor 0.5 mM), `CCCCC[C@H](CC(=O)NO)C(=O)N[C@H](C(=O)N1CCC[C@H]1CO)C(C)C` [Actinonin, actinonin] returned a Leu-pNA enzyme activity of 0.621 nmoles/min/10 μl ConA O12 and a Leu-pNA enzyme inhibition of 49%. In the assay on Con A Oo12 ApM activity (inhibitor 1 mM), this molecule registered a Leu-pNA enzyme activity of 0.448 nmoles/min/10 μl ConA O12 and a Leu-pNA enzyme inhibition of 63%. In the assay on Con A Oo12 ApA activity (inhibitor 0.5 mM), this molecule showed a α-Glu-pNA enzyme activity of 0.016 nmoles/min/10 μl ConA O12 and a α-Glu-pNA enzyme inhibition of 95%. In the assay with Con A Oo12 ApA activity (inhibitor 1 mM), this molecule returned a α-Glu-pNA enzyme activity of 0.029 nmoles/min/10 μl ConA O12 and a α-Glu-pNA enzyme inhibition of 91%.

In the assay on Con A Oo12 ApM activity (inhibitor 1 mM), `O=C(O)CN(CCN(CC(=O)O)CC(=O)O)CC(=O)O` [EDTA] yielded a Leu-pNA enzyme activity of 0.994 nmoles/min/10 μl ConA O12 and a Leu-pNA enzyme inhibition of 19%. For the same molecule, in the assay on Con A Oo12 ApM activity (inhibitor 15 mM), the Leu-pNA enzyme activity came out at 0.784 nmoles/min/10 μl ConA O12 and the Leu-pNA enzyme inhibition was 36%. In the assay with Con A Oo12 ApA activity (inhibitor 1 mM), this molecule returned a α-Glu-pNA enzyme activity of 0.161 nmoles/min/10 μl ConA O12 and a α-Glu-pNA enzyme inhibition of 52%. Further, in the assay on Con A Oo12 ApA activity (inhibitor 15 mM), the α-Glu-pNA enzyme activity was 0.112 nmoles/min/10 μl ConA O12 and the α-Glu-pNA enzyme inhibition was determined as 66%.

In the assay on Con A Oo12 ApM activity (inhibitor 100 μM), `O=c1oc(Cl)c(Cl)c2ccccc12` [DCI, 3,4-dichloroisocoumarin] showed a Leu-pNA enzyme activity of 1.229 nmoles/min/10 μl ConA O12 and a Leu-pNA enzyme inhibition of 0%. Besides, in the assay on Con A Oo12 ApM activity (inhibitor 500 μM), the Leu-pNA enzyme activity is recorded as 1.129 nmoles/min/10 μl ConA O12 and the Leu-pNA enzyme inhibition turned out to be 8%. In the assay with Con A Oo12 ApA activity (inhibitor 100 μM), this molecule yielded a α-Glu-pNA enzyme activity of 0.252 nmoles/min/10 μl ConA O12 and a α-Glu-pNA enzyme inhibition of 24%. Moreover, in the assay with Con A Oo12 ApA activity (inhibitor 500 μM), the α-Glu-pNA enzyme activity is reported as 0.216 nmoles/min/10 μl ConA O12 and the α-Glu-pNA enzyme inhibition is 35%.

Regarding `c1cnc2c(c1)ccc1cccnc12` [1,10 Phenanthroline, 1,10 phenanthroline], the “inhibitory effect on aminopeptidase activity” value in the assay on Con A Oo12 ApM activity (10 mM) was “greatest inhibition”. In the assay on Con A Oo12 ApM activity (inhibitor 1 mM), the Leu-pNA enzyme activity is reported as 0.005 nmoles/min/10 μl ConA O12 and the Leu-pNA enzyme inhibition is on record as 99%. Besides, in the assay with Con A Oo12 ApM activity (inhibitor 10 mM), the Leu-pNA enzyme activity was 0 nmoles/min/10 μl ConA O12 and the Leu-pNA enzyme inhibition is 100%. In addition, in the assay with Con A Oo12 ApA activity (inhibitor 1 mM), the α-Glu-pNA enzyme activity was found to be 0 nmoles/min/10 μl ConA O12 and the α-Glu-pNA enzyme inhibition was found to be 100%. In the assay with Con A Oo12 ApA activity (inhibitor 10 mM), this molecule yielded a α-Glu-pNA enzyme activity of 0 nmoles/min/10 μl ConA O12 and a α-Glu-pNA enzyme inhibition of 100%.

B1: Thermolysin: protease, Sigma, 37 units/mg solid (protein, UniProt P00800 233-548, looked up)
Thermolysin: ITGTSTVGVGRGVLGDQKNINTTYSTYYYLQDNTRGNGIFTYDAKYRTTLPGSLWADADNQFFASYDAPAVDAHYYAGVTYDYYKNVHNRLSYDGNNAAIRSSVHYSQGYNNAFWNGSQMVYGDGDGQTFIPLSGGIDVVAHELTHAVTDYTAGLIYQNESGAINEAISDIFGTLVEFYANKNPDWEIGEDVYTPGISGDSLRSMSDPAKYGDPDHYSKRYTGTQDNGGVHINSGIINKAAYLISQGGTHYGVSVVGIGRDKLGKIFYRALTQYLTPTSNFSQLRAAAVQSATDLYGSTSQEVASVKQAFDAVGVK
Consider B1, for which the “Aminopeptidase M activity released by protease digestion, Met-pNA” value with Ostertagia ostertagi PHP (5 μg protease/0.1 mg PHP/ml) is 0.06 nmoles/min/5 μl high speed supernatant; with Ostertagia ostertagi PHP (50 μg protease/0.1 mg PHP/ml), 0.07 nmoles/min/5 μl high speed supernatant; with Ostertagia ostertagi PHP (500 μg protease/0.1 mg PHP/ml), 0.08 nmoles/min/5 μl high speed supernatant; with Ostertagia ostertagi PHP (1000 μg protease/0.1 mg PHP/ml), 0.11 nmoles/min/5 μl high speed supernatant; with Ostertagia ostertagi PHP (2000 μg protease/0.1 mg PHP/ml), 0.19 nmoles/min/5 μl high speed supernatant. Besides, the “release of ApM from the PhP” value in the assay with Ostertagia ostertagi PHP (5-2000 μg/ml protease) is given as “least effective”.

B2: Subtilisin: protease, Sigma type VIII, 11.6 units/mg solid (protein, UniProt P00780 106-379, looked up)
Subtilisin Carlsberg: AQTVPYGIPLIKADKVQAQGFKGANVKVAVLDTGIQASHPDLNVVGGASFVAGEAYNTDGNGHGTHVAGTVAALDNTTGVLGVAPSVSLYAVKVLNSSGSGSYSGIVSGIEWATTNGMDVINMSLGGASGSTAMKQAVDNAYAKGVVVVAAAGNSGSSGNTNTIGYPAKYDSVIAVGAVDSNSNRASFSSVGAELEVMAPGAGVYSTYPTNTYATLNGTSMASPHVAGAAALILSKHPNLSASQVRNRLSSTATYLGSSFYYGKGLINVEAAAQ
In the case of B2, the “Aminopeptidase M activity released by protease digestion, Met-pNA” value in the assay with Ostertagia ostertagi PHP (5 μg protease/0.1 mg PHP/ml) is recorded as 0.06 nmoles/min/5 μl high speed supernatant; with Ostertagia ostertagi PHP (50 μg protease/0.1 mg PHP/ml), 0.10 nmoles/min/5 μl high speed supernatant; in the assay with Ostertagia ostertagi PHP (500 μg protease/0.1 mg PHP/ml) it was 0.35 nmoles/min/5 μl high speed supernatant; in the assay on Ostertagia ostertagi PHP (1000 μg protease/0.1 mg PHP/ml) it was 0.66 nmoles/min/5 μl high speed supernatant; in the assay on Ostertagia ostertagi PHP (2000 μg protease/0.1 mg PHP/ml) it was 0.95 nmoles/min/5 μl high speed supernatant.

These data come from patent US6413521B1, “Helminth parasite antigen with aminopeptidase-like activity” (The Barbraham Institute, priority 1993, dated 2002).
